Experimental data as given in patent US9758459B2, “Allosteric modulators of factor XIa as anticoagulant agents” (VIRGINIA COMMONWEALTH UNIVERSITY, priority 2012, dated 2017).
Values joined by “and” are separate entries in the source; they are usually repeats but may differ in a detail not shown here. Equal entries are not always repeated.

Assays:
factor Xa = target: T1, factor Xa (Homo sapiens, UniProt P00742); assay: Factor Xa chromogenic substrate hydrolysis assay; type: biochemical
T1 construct: purchased Haematologic Technologies (Essex Junction, Vt.); host or cells: human plasma
T1 sequence (P00742 235-488 limits assumed): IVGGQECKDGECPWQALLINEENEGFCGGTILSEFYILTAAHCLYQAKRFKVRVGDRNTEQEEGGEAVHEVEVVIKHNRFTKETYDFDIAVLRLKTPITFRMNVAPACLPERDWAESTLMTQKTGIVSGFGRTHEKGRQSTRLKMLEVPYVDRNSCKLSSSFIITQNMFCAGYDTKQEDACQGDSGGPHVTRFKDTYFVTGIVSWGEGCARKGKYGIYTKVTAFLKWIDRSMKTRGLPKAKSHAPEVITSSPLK
T1 sequence (P00742 41-179 partner limits assumed): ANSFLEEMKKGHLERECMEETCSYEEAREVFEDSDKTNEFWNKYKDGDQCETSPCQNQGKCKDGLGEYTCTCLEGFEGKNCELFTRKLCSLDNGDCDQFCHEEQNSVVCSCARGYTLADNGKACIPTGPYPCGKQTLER
Procedure: (§1) Plasma FIX (500 nM) was incubated with human FXIa (3 nM) in 50 mM Hepes buffer, pH 7.4, containing 125 mM NaCl, 5 mM CaCl2, and 0.1 mg/mL bovine serum albumin at 24° C. […] The primary antibody was goat anti-human FIX polyclonal IgG (Enzyme Research Laboratories, South Bend, Tenn.), and the secondary antibody was horseradish peroxidase-conjugated anti-goat IgG. Detection was by chemiluminescence. […] The inhibition profile was determined over a range of inhibitor concentrations to determine the IC50 of the enzyme-inhibitor complex. The KM of the substrate for its enzyme was used to identify the concentration of the substrate to be used for inhibition studies. […] Active site concentrations for preparations of FXIa were determined by titrations with human antithrombin in an S-2366 cleavage assay. The reaction was monitored using a SpectraMax 340 microtiter plate reader (Molecular Devices Corp., Sunnyvale, Calif.) with a reaction volume of 100 μL and path length of 3 mm. Each assay was performed in triplicate. The concentration of S-2366 was measured using an absorption coefficient of 8,266 M-1cm-1 at λ342 nm, while the free p-nitroaniline concentration was calculated using an absorption coefficient of 9,933 M cm^−1 at λ405 nm. The data was fitted using the standard Michaelis-Menten equation to determine the KM and VMAX. Results
(§2) Inhibition of Proteases of the Coagulation and Digestive Systems by 16S. The inhibition potential of 500 μM SAM (16S, 15S, 13S) against coagulation enzymes including thrombin and factor Xa and digestive enzymes including trypsin and chymotrypsin was evaluated using chromogenic substrate hydrolysis assays reported in the literature.^2,3,6 These assays were performed using substrates appropriate for the enzyme being studied under conditions closest to the physiological condition (37° C. and pH 7.4), except for thrombin, which was performed at 25° C. and pH 7.4. The concentrations of enzymes and substrates in microplate wells, respectively, were: 6 nM and 50 μM for thrombin; 1.09 nM and 125 μM for factor Xa, 2.5 ng/ml and 80 μM for bovine trypsin; and 500 ng/ml and 240 μM for bovine chymotrypsin. The ratio of the proteolytic activity of an enzyme in the presence of the sulfated QAO to that in its absence was used to calculate percent inhibition (%).

factor XIIa = target: T2, factor XIIa (Homo sapiens, UniProt P00748); assay: Factor XIIa chromogenic substrate hydrolysis assay; type: biochemical
T2 construct: purchased Enzyme Research Laboratories (South Bend, Ind.)
T2 sequence (P00748 373-615 limits assumed): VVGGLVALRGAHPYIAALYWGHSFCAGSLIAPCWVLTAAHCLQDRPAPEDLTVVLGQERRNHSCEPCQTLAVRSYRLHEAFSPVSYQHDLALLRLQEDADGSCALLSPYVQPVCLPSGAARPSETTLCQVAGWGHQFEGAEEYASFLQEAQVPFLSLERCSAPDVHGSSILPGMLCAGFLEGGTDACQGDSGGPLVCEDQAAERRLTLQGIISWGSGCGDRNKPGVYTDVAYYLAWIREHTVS

thrombin = target: T3, thrombin (Homo sapiens, UniProt P00734); assay: Thrombin chromogenic substrate hydrolysis assay; type: biochemical
T3 construct: purchased Haematologic Technologies (Essex Junction, Vt.); host or cells: human plasma
Procedure: as §1, §2

human FXIa = target: T4, human FXIa (Homo sapiens, UniProt P03951); assay: Inhibition of FXIa activation of FIX, Western blotting; type: biochemical
T4 construct: purchased Haematologic Technologies (Essex Junction, Vt.); host or cells: human plasma
T4 sequence (P03951 19-387 limits assumed): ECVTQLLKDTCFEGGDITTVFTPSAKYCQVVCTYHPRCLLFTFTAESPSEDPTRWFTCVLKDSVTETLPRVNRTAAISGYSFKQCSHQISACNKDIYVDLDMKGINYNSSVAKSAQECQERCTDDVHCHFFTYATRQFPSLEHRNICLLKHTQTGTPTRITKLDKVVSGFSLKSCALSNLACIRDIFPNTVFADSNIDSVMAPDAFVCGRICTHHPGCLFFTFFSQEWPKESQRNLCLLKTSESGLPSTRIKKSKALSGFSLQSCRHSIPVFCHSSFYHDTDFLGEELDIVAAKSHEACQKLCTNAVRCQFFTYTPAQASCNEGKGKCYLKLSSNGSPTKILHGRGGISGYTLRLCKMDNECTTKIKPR
T4 sequence (P03951 388-625 limits assumed): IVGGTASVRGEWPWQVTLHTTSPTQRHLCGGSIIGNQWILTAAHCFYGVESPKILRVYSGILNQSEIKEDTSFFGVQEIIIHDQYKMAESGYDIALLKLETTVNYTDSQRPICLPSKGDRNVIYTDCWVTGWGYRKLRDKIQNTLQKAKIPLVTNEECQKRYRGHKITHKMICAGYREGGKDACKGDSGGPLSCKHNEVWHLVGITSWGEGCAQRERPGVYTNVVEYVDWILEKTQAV
Procedure: as §1

FXIa wild type (FXIa-WT) = target: T5, FXIa wild type (FXIa-WT) (Homo sapiens, UniProt P03951); assay: Michaelis-Menten kinetics of S-2366 hydrolysis by full-length factor XIa; type: biochemical
T5 construct: made in house; host or cells: HEK-293
T5 sequence (P03951 19-387 limits assumed): as the sequence (P03951 19-387 limits assumed) above
T5 sequence (P03951 388-625 limits assumed): as the sequence (P03951 388-625 limits assumed) above
Procedure: as §1

[1] = target: T6, FXIa catalytic domain (FXIa-CD) (Homo sapiens, UniProt P03951, C500S); assay: Michaelis-Menten kinetics of S-2366 hydrolysis by FXIa catalytic domain; type: biochemical
T6 construct: eliminating the bond allows the catalytic domain of FXIa (FXIa-CD) to separate from the heavy chain; made in house; host or cells: HEK-293
T6 sequence (P03951 388-625 C500S): as the sequence (P03951 388-625 limits assumed) above, with C113S counted along it
Procedure: as §1

human plasma [2] = assay: Activated partial thromboplastin time (APTT) plasma clotting assay; type: biochemical
Procedure: (§3) Plasma clotting assays, prothrombin and activated partial thromboplastin time (PT and APTT, respectively), are routinely used to assess the anticoagulation potential of new enzyme inhibitors in an in vitro setting. Whereas PT measures the effect of an inhibitor on the extrinsic pathway of coagulation, APTT measures the effect on the intrinsic pathway.
(§4) Prothrombin Time (PT) and Activated Partial Thromboplastin Time (APTT) were assessed as described in Example 1.

human plasma [3] = assay: Prothrombin time (PT) plasma clotting assay; type: biochemical
Procedure: as §3, §4

human whole blood = assay: Thromboelastography of clot formation in whole blood; parameters: G: unit not given here
From the text: To assess the anticoagulation properties of SPGG in human whole blood, thromboelastography was employed. This technique is an ex vivo protocol often utilized to evaluate the anticoagulant activity of low molecular weight heparins (LMWHs) in whole blood.^13-16Thromboelastography monitors the thrombodynamic properties of blood as it is induced to clot under a low shear environment resembling sluggish venous flow. These thrombodynamic properties are expected to dramatically change in presence of anticoagulant in blood. The blood clot formation is recorded as a force transduced on a pin at the center of a blood-containing cup. The kinetics of clot formation and growth as well as the strength and stability of the formed clot are measured through parameters such as maximum amplitude (MA) of clot formation; shear elastic modulus strength (G) of clot; the reaction time (R) for the start of clotting; and the angle α, which is a measure of fibrin build-up and cross-linking (FIG. 8).

**Q.** For O=C(OC[C@H]1O[C@@H](OC(=O)c2cc(OS(=O)(=O)O)c(O)c(OS(=O)(=O)O)c2)[C@H](OC(=O)c2cc(OS(=O)(=O)O)c(O)c(OS(=O)(=O)O)c2)[C@@H](OC(=O)c2cc(OS(=O)(=O)O)c(O)c(OS(=O)(=O)O)c2)[C@@H]1OC(=O)c1cc(OS(=O)(=O)O)c(O)c(OS(=O)(=O)O)c1)c1cc(OS(=O)(=O)O)c(O)c(OS(=O)(=O)O)c1 [SPGG, Sulfated Pentagalloylglucoside], which HS (factor Xa) is on record?
**A.** 0.8 ± 0.2

**Q.** And the IC50 (factor Xa)?
**A.** 153 µM

**Q.** What about the ΔY (factor Xa) of the same compound?
**A.** 101.9 ± 3.5

**Q.** And the “selectivity over factor Xa” value (factor Xa; FXIa vs factor Xa)?
**A.** 221 fold

**Q.** What about the HS (factor XIIa) of the same compound?
**A.** 3.0 ± 1.8

**Q.** And the IC50 (factor XIIa)?
**A.** 147 µM

**Q.** And the ΔY (factor XIIa)?
**A.** 55.7 ± 5.9

**Q.** What about the “selectivity over factor XIIa” value (factor XIIa; FXIa vs factor XIIa) of the same compound?
**A.** 200 fold

**Q.** And the HS (thrombin)?
**A.** 0.5 ± 0.1

**Q.** What about the IC50 (thrombin) of the same compound?
**A.** 700 µM

**Q.** What about the ΔY (thrombin) of the same compound?
**A.** 83 ± 10

**Q.** And the selectivity over thrombin (thrombin; FXIa vs thrombin)?
**A.** 1016 fold

**Q.** What about the “formation of FIXαβ” value (human FXIa; 3 μM SPGG, FIX 0.5 μM, after 120 min of incubation) of the same compound?
**A.** not detectable

**Q.** What about the inhibition at 3 µM (human FXIa; read-out: efficacy of inhibition of FIX activation by FXIa) of the same compound?
**A.** ~100%

**Q.** What about the VMAX (FXIa wild type (FXIa-WT); [SPGG] 0.005 μg/mL) of the same compound?
**A.** 93.7 ± 3.2 mAU/min

**Q.** And the VMAX (FXIa wild type (FXIa-WT); [SPGG] 0.5 μg/mL)?
**A.** 74.6 ± 2.6 mAU/min

**Q.** What about the VMAX (FXIa wild type (FXIa-WT); [SPGG] 5.0 μg/mL) of the same compound?
**A.** 32.3 ± 2.1 mAU/min

**Q.** And the VMAX (FXIa wild type (FXIa-WT); [SPGG] 50.0 μg/mL)?
**A.** 17.2 mAU/min and 17.2 ± 1.2 mAU/min

**Q.** What about the VMAX (FXIa wild type (FXIa-WT); [SPGG] […]) of the same compound?
**A.** 56.9 ± 1.5 mAU/min

**Q.** And the “decrease in VMAX” value ([1]; SPGG 0 to 5.0 μg/mL)?
**A.** ~5 fold

**Q.** What about the VMAX ([1]; [SPGG] 0.005 μg/mL) of the same compound?
**A.** 87.0 ± 2.2 mAU/min

**Q.** And the VMAX ([1]; [SPGG] 0.5 μg/mL)?
**A.** 53.9 ± 1.4 mAU/min

**Q.** What about the VMAX ([1]; [SPGG] 5.0 μg/mL) of the same compound?
**A.** 22.6 mAU/min and 22.6 ± 1.4 mAU/min

**Q.** What about the “fold less effective than enoxaparin” value (human plasma [2]; at molar levels) of the same compound?
**A.** 36 fold

**Q.** And the “APTT doubling potency relative to enoxaparin (fold less)” value (human plasma [2]; by weight (μg/mL))?
**A.** 18 fold

**Q.** What about the “concentration for 2-fold increase in APTT” value (human plasma [2]; human plasma) of the same compound?
**A.** 96 µg/mL

**Q.** And the “concentration for 2-fold increase in PT” value (human plasma [3])?
**A.** 298 µg/mL

**Q.** What about the “reduction of G” value (human whole blood; SPGG 0-280 μg/mL) of the same compound?
**A.** ~8 fold

**Q.** What about the “reduction of MA” value (human whole blood; SPGG 0-280 μg/mL) of the same compound?
**A.** ~4 fold

**Q.** And the G (human whole blood; SPGG 20 μg/mL)?
**A.** 8.2 × 10^3

**Q.** What about the MA (human whole blood; SPGG 20 μg/mL) of the same compound?
**A.** 62 mm

**Q.** And the R (human whole blood; SPGG 20 μg/mL)?
**A.** 6.6 min

**Q.** And the α (human whole blood; SPGG 20 μg/mL)?
**A.** 51.4 degs

**Q.** And the G (human whole blood; SPGG 135 μg/mL)?
**A.** 5.0 × 10^3

**Q.** What about the MA (human whole blood; SPGG 135 μg/mL) of the same compound?
**A.** 49.8 mm

**Q.** What about the R (human whole blood; SPGG 135 μg/mL) of the same compound?
**A.** 22.8 min

**Q.** What about the α (human whole blood; SPGG 135 μg/mL) of the same compound?
**A.** 30.6 degs

**Q.** What about the G (human whole blood; SPGG 190 μg/mL) of the same compound?
**A.** 3.8 × 10^3

**Q.** And the MA (human whole blood; SPGG 190 μg/mL)?
**A.** 43.5 mm

**Q.** And the R (human whole blood; SPGG 190 μg/mL)?
**A.** 37.8 min

**Q.** What about the α (human whole blood; SPGG 190 μg/mL) of the same compound?
**A.** 9.4 degs

**Q.** What about the G (human whole blood; SPGG 280 μg/mL) of the same compound?
**A.** 0.9 × 10^3

**Q.** What about the MA (human whole blood; SPGG 280 μg/mL) of the same compound?
**A.** 15.1 mm

**Q.** And the R (human whole blood; SPGG 280 μg/mL)?
**A.** 87.1 min

**Q.** What about the α (human whole blood; SPGG increased from 0 to 280 μg/mL) of the same compound?
**A.** less than 9.4 °
